Measured values reported in US12686668B2, “Leukotriene synthesis inhibitors” (Naegis Pharmaceuticals Inc., priority 2019, dated 2026).
pIC50: −log10 of the molar value. Like-named read-outs stand apart in the source and are kept apart here.

How the values were obtained:
[1] = tested on: LTC4 production in MC/9 cells; assay: MC/9 HPLC assay, inhibition of LTC4 production; type: cell-based; conditions: Mus musculus; for inhibition at 3 µM: MC9, 3 μM, A23187 stimulated
Procedure, shortened: (§1)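 MC/9 cells (3×10^6 in HBSS) pre-incubated 30 min with compound, then stimulated 20 min at room temperature with 1 μM A23187. After methanol quench and C18 solid-phase extraction, LTB4 and LTC4 quantified by HPLC against reference standards; inhibition relative to control samples.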

[2] = tested on: AA-induced ear edema; assay: Arachidonic acid (AA) induced mouse ear edema model; type: in vivo, CD-1 mice; conditions: 4 hrs and 1 hr before AA 2 mg/ear, mice; for % Inhibition AA-Induced ear edema (0.3 mg/ear): topical 0.3 mg/ear; for % Inhibition AA-Induced ear edema (1 mg/ear): topical 1 mg/ear
Procedure: One group serves as a control and receives 20 μL of vehicle applied to the pinna of each ear (10 μL to the inside and 10 μL to the outside of the pinna). One or more additional groups serve as test groups. The test compound was applied to the pinna of one ear of the mouse in a 20 μL volume (10 μL to the inside and 10 μL to the outside of the pinna). Test compound or control vehicle (acetone/1% DMSO) was applied topically to the right ear 4 and 1 hour before the application of 2 mg/ear AA as a stimulus to both the inner and outer surfaces of CD-1 mice. The left ears received vehicle (acetone/1% DMSO) alone. The animal was lightly anesthetized again using isofluorane to enable application of the stimulus. For the control group, arachidonic acid (2 mg/ear) was applied as the stimulus to the pinna of one ear only, in a total volume of 20 μL of acetone (10 μL applied to the inside and 10 μL to the outside of the pinna). The other ear received 20 μL of acetone. This served to determine the increase in ear weight due to arachidonic acid in the absence of test compounds. For the test groups, arachidonic acid (2 mg/ear) was applied as the stimulus to the pinna of each ear, in a total volume of 20 μL of acetone (10 μL applied to the inside and 10 μL to the outside of the pinna). The animal was allowed to recover after application of the stimulus in each case. After 60 minutes the animal was euthanized and a standard biopsy sample was taken from each ear using a 6 mm skin biopsy punch (Acuderm). Ear edema was determined by the increase in weight of the tissue due to accumulation of fluid as a result of plasma extravasation. The ears were weighed separately using a balance suitable to record 0.1 mg. For the control group, the difference in ear weights was determined by subtracting the weight of the unstimulated ear from the stimulated ear, and this was a measure of the increase in ear weight due to edema. The percentage increase in ear weight was determined by dividing the increase in stimulated ear weight by the unstimulated ear weight and multiplying by 100. For the test groups, the difference in ear weights was determined by subtracting the weight of the untreated ear from the weight of the ear treated with test compound. The percent inhibition of the increase in ear weight for ears treated with the test compound was estimated by first subtracting the mean ear weight of the untreated controls from each tissue to determine the increase in tissue weight due to application of the arachidonic acid. The percent inhibition=1−(test drug stimulated ear (mg)/control stimulated ear (mg))×100. In Table 5, the data from inhibition of AA-induced ear edema in mice by topical application of compounds is provided. Compounds (0.3 or 1 mg/ear) were applied topically to the ear 4 hrs and 1 hr prior to application of arachidonic acid (AA; 2 mg/ear).

[3] = tested on: LTB4 production in porcine or human whole blood; assay: Whole blood HPLC assay, inhibition of LTB4 production; type: cell-based; conditions: 5 point curve, porcine or human whole blood (not specified)
Procedure: Porcine or human whole blood (1 mL) was pre-incubated with a series of concentrations of compound solubilized in DMSO for 30 minutes. Production of leukotrienes were stimulated with the addition of 20 μM calcium ionophore (A23187), diluted from a 4 mM DMSO stock in HBSS, and incubated at room temperature for 20 minutes. In porcine blood 20 μM arachidonic acid was added in addition to the calcium ionophore. The blood was centrifuged at 2,000 rpm for 15 minutes, and the plasma fraction removed for further processing. Plasma samples were diluted with 500 μL acidified water (HCl pH 3.0) and loaded onto C18 SEP-PAK columns (Canadian Lifesciences IS12000) for solid phase extraction. The leukotrienes were analyzed by HPLC using an ACE C18 column (4.5 mm×150 mm, 5 m) eluted with acetonitrile/methanol/water mixture with H3PO4, pH 3.5 (37:26:37) with a flow rate of 1.8 mL/min. The amount of LTB4 (Cayman Chemical, 20110) was calculated based on reference standards and the level of inhibition of LTB4 production induced by the test compounds was calculated relative to control samples. The results provided in Table 3 are IC50 values calculated based on a 5 point curve, where Compound No. refers to the compounds identified in Table 1.

[4] = tested on: LTB4 production in MC/9 cells; assay: MC/9 HPLC assay, inhibition of LTB4 production; type: cell-based; conditions: Mus musculus
Procedure, shortened: as §1

[5] = biological target: T1, recombinant human leukotriene A4 hydrolase enzyme (Homo sapiens, UniProt P09960); assay: Amino-peptidase assay, PGP; type: biochemical; conditions: concentration not given
T1 construct: purchased Cayman Chemical 10007817
T1 sequence (P09960 1-611): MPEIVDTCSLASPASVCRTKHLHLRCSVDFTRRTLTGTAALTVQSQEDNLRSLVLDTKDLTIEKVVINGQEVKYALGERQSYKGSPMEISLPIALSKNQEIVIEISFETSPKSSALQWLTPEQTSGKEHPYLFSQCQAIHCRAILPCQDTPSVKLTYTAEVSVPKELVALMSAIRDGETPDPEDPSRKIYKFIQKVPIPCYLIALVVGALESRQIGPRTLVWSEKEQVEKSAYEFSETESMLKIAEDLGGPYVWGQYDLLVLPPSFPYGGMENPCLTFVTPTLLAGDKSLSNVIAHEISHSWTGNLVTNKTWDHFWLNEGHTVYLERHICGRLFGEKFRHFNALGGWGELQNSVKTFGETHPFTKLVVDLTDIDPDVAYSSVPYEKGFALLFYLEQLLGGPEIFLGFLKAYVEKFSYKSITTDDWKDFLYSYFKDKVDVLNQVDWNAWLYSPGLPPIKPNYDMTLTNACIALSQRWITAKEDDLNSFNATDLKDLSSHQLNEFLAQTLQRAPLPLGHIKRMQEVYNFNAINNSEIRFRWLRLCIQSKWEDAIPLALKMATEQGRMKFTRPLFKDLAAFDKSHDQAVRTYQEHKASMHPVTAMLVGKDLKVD
Procedure: A series of compound concentrations were pre-incubated with 50 ng of recombinant human leukotriene A4 hydrolase enzyme (Cayman Chemical, 10007817) in 50 L assay buffer (50 mM Tris-HCl, 100 mM KCl). The reaction was stimulated by adding 50 L 1 mM proline-glycine-proline (Bachem, H-7284) and incubated for 30 minutes at 37° C. The reaction was stopped with the addition of 150 μL of glacial acetic acid. The amount of free proline released from the peptide was detected through a reaction with ninhydrin. 150 μL of 25 mg/mL ninhydrin (BDH, B10132) in 60:40 acetic acid/water was added to each sample, and boiled for 30 minutes at 100° C. and once samples had cooled to room temperature, 350 μL of toluene was added to extract the ninhydrin reaction product. The amount of free proline was determined by comparing the absorbance at 520 nm to the L-proline (Sigma Aldrich, 81709) reference standard. Inhibition of free proline production was calculated based on control samples.

[6] = biological target: T1, recombinant human leukotriene A4 hydrolase enzyme; assay: Amino-peptidase assay, alanine-4-nitroanalide; type: biochemical; conditions: negative values = augmented peptidase activity, read-out: % Inhibition aminopeptidase-Alanine-4-nitroanalide activity of LTA4H (3 μM)
Procedure, shortened: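 Compounds pre-incubated in the dark with recombinant human LTA4H (0.5 μg) in 50 mM Tris-HCl, 100 mM KCl; reaction started with alanine-4-nitroanilide (6 mM solution). Aminopeptidase rate followed as A405 from 4-nitroaniline, referenced to a standard; inhibition calculated versus controls, with negative values indicating augmented activity.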

[7] = MC9, Table 2 column 3, no concentration in head (1 μM according to b732), read-out: % Inhibition LTC4
[8] = MC9, Table 2 column 4, no concentration in head (1 μM according to b732), read-out: % Inhibition LTB4
[9] = MC9, 1 μM, read-out: % inhibition LTC4 (1 μM)
[10] = MC9, 1 μM, read-out: % inhibition LTB4 (1 μM)

COc1cc(CCC(C)(O)C(F)(F)F)ccc1Oc1nc2c(SC)cccc2s1 (stereo not shown) [Compound 119, 1,1,1-trifluoro-4-(3-methoxy-4-{[4-(methylsulfanyl)-1,3-benzothiazol-2-yl]oxy}phenyl)-2-methylbutan-2-ol]
inhibition at 3 µM [1]: > 90%
inhibition at 1 µM [1, 7]: > 90%
% Inhibition AA-Induced ear edema (0.3 mg/ear) [2]: 30-50%
% Inhibition AA-Induced ear edema (1 mg/ear) [2]: 50-70%
pIC50 [3]: 5.00 to 6.00
inhibition at 1 µM [4, 8]: > 90%

COc1cc(CCC(C)(O)C(F)(F)F)ccc1OCc1ccc2ccccc2n1 (stereo not shown) [Compound 184, 1,1,1-trifluoro-4-[3-methoxy-4-(quinolin-2-ylmethoxy)phenyl]-2-methylbutan-2-ol]
% Inhibition aminopeptidase-PGP activity of LTA4H [5]: 25-50%
pIC50 [3]: 6.00 to 7.00
inhibition at 3 µM [6]: < 25%

CCC(O)(CCc1ccc(Oc2nc3ccccc3s2)cc1)C(F)(F)F (stereo not shown) [Compound 150, 1-[4-(1,3-benzothiazol-2-yloxy)phenyl]-3-(trifluoromethyl)pentan-3-ol]
% Inhibition aminopeptidase-PGP activity of LTA4H [5]: <25%
inhibition at 1 µM [1, 9]: 10 to 30%
inhibition at 3 µM [1]: 70 to 90%
inhibition at 1 µM [1, 7]: 10 to 30%
pIC50 [3]: 5.00 to 6.00
inhibition at 1 µM [4, 10]: 50 to 70%
inhibition at 1 µM [4, 8]: 50 to 70%
inhibition at 3 µM [6]: 25 to 50%

CCC(O)(CCc1ccc(Oc2nc3ccccc3s2)c(OC)c1)C(F)(F)F (stereo not shown) [Compound 103, 1-[4-(1,3-benzothiazol-2-yloxy)-3-methoxyphenyl]-3-(trifluoromethyl)pentan-3-ol]
inhibition at 1 µM [1, 9]: 50 to 70%
inhibition at 3 µM [1]: > 90%
inhibition at 1 µM [1, 7]: 50 to 70%
% Inhibition AA-Induced ear edema (0.3 mg/ear) [2]: 30-50%
% Inhibition AA-Induced ear edema (1 mg/ear) [2]: 70-90%
pIC50 [3]: 5.00 to 6.00
inhibition at 1 µM [4, 10]: 50 to 70%
inhibition at 1 µM [4, 8]: 50 to 70%

CCC(O)(CCc1ccc(Oc2nc3ccc(F)cc3s2)c(OC)c1)C(F)(F)F (stereo not shown) [Compound 108, 1-{4-[(6-fluoro-1,3-benzothiazol-2-yl)oxy]-3-methoxyphenyl}-3-(trifluoromethyl)pentan-3-ol]
inhibition at 3 µM [1]: 50 to 70%
inhibition at 1 µM [1, 7]: 70 to 90%
% Inhibition AA-Induced ear edema (0.3 mg/ear) [2]: <10%
% Inhibition AA-Induced ear edema (1 mg/ear) [2]: 30-50%
pIC50 [3]: 5.00 to 6.00
inhibition at 1 µM [4, 8]: > 90%

CCC(CCc1ccc(Oc2nc3ccccc3s2)cc1)N1CCCC1 (stereo not shown) [Compound 158, 2-{4-[3-(pyrrolidin-1-yl)pentyl]phenoxy}-1,3-benzothiazole]
inhibition at 3 µM [1]: < 10%
inhibition at 1 µM [1, 7]: 10 to 30%
% Inhibition AA-Induced ear edema (1 mg/ear) [2]: 10-30%
pIC50 [3]: 6.00 to 7.00
inhibition at 1 µM [4, 8]: > 90%
inhibition at 3 µM [6]: 50 to 75%
